Here are results for two compounds from patent US10675251B2, “Particles containing branched polymers” (The University of Liverpool, priority 2014, dated 2020).

The series in a line: Drug loading (encapsulation) in co-nanoprecipitated particles. Format: physicochemical. On the procedure:
During a typical nanoparticle preparation, 5.5 mL of a 1 mg/mL acetone solution of efavirenz, ritonavir or lopinavir is added to a vial and left to evaporate overnight. To this vial 25 mg of the branched polymer and 25 mg of the polymer diblock were added and dissolved in 10 mL of acetone during 6-8 hours to ensure complete solubilisation. 1 mL of the 5 mg/mL solution of polymers and dissolved drug was added to 5 mL of stirring distilled water (500 rpm) and left for 24 hours for complete acetone evaporation (final concentration of polymer 1 mg/mL). During a typical nanoparticle preparation 5.5 mL of a 1 mg/mL acetone solution of irinotecan was added to a vial and left to evaporate overnight. To this vial, 25 mg of the branched polymer and 25 mg of the polymer diblock were added and dissolved in 10 mL of acetone during 6-8 hours to ensure complete solubilisation. 1 mL of the 5 mg/mL solution of polymers and dissolved drug was added to 5 mL of stirring water (500 rpm) and left for 24 hours for complete acetone evaporation.

The compound `O=C1Nc2ccc(Cl)cc2[C@@](C#CC2CC2)(C(F)(F)F)O1` [Efavirenz] came in with a drug loading achieved of 25 wt %.
For `CCc1c2c(nc3ccc(OC(=O)N4CCC(N5CCCCC5)CC4)cc13)-c1cc3c(c(=O)n1C2)COC(=O)[C@]3(O)CC` [Irinotecan] the value was “effectively encapsulated at 10 wt % or 15 wt %”.
